Our source for the mutagenic call values is PubChem BioAssay AID1259407 (Chemical Carcinogenesis Research Information System (CCRIS), 2018).

This series deals with CCRIS mutagenicity, Ames/micronucleus/aberration tests. Briefly: CCRIS mutagenicity studies.
[1] abbreviates: Test System: AMES SALMONELLA TYPHIMURIUM, Strain/Indicator: TA98, Metabolic Activation: NONE, Method: STANDARD PLATE.
[2] abbreviates: Test System: AMES SALMONELLA TYPHIMURIUM, Strain/Indicator: TA100, Metabolic Activation: NONE, Method: STANDARD PLATE.
Where [3] appears, read: Test System: AMES SALMONELLA TYPHIMURIUM, Strain/Indicator: TA1535, Metabolic Activation: NONE, Method: STANDARD PLATE.
The mark [4] stands for this setting: Test System: AMES SALMONELLA TYPHIMURIUM, Strain/Indicator: TA1537, Metabolic Activation: NONE, Method: STANDARD PLATE.
Setting [5] is: Test System: AMES SALMONELLA TYPHIMURIUM, Strain/Indicator: TA98, Metabolic Activation: RAT, LIVER, S-9, AROCLOR 1254, Method: STANDARD PLATE.
Setting [6] is: Test System: AMES SALMONELLA TYPHIMURIUM, Strain/Indicator: TA100, Metabolic Activation: RAT, LIVER, S-9, AROCLOR 1254, Method: STANDARD PLATE.

Molecules are shown by their SMILES. Activity calls are given as the source filed them. How the calls were made is not given here.

In the case of `CC1CCC(C(C)C)C(OC(=O)c2ccccc2N)C1` (configuration not stated), the mutagenic call (Test System: AMES SALMONELLA TYPHIMURIUM, Strain/Indicator: TA98, Metabolic Activation: HAMSTER, LIVER, S-9, AROCLOR 1254 (10%), Method: STANDARD PLATE) was “inactive; negative”; the mutagenic call under setting [1] was “inactive; negative”; the mutagenic call (Test System: AMES SALMONELLA TYPHIMURIUM, Strain/Indicator: TA98, Metabolic Activation: RAT, LIVER, S-9, AROCLOR 1254 (10%), Method: STANDARD PLATE) was “inactive; negative”; the mutagenic call (Test System: AMES SALMONELLA TYPHIMURIUM, Strain/Indicator: TA100, Metabolic Activation: HAMSTER, LIVER, S-9, AROCLOR 1254 (10%), Method: STANDARD PLATE) is “inactive; negative”; the mutagenic call under setting [2] is “inactive; negative”; the mutagenic call (Test System: AMES SALMONELLA TYPHIMURIUM, Strain/Indicator: TA100, Metabolic Activation: RAT, LIVER, S-9, AROCLOR 1254 (10%), Method: STANDARD PLATE) is “inactive; negative”. Moreover, the mutagenic call is, setting by setting: (Test System: AMES SALMONELLA TYPHIMURIUM, Strain/Indicator: TA1535, Metabolic Activation: HAMSTER, LIVER, S-9, AROCLOR 1254 (10%), Method: STANDARD PLATE) “inactive; negative”; under setting [3], “inactive; negative”; (Test System: AMES SALMONELLA TYPHIMURIUM, Strain/Indicator: TA1535, Metabolic Activation: RAT, LIVER, S-9, AROCLOR 1254 (10%), Method: STANDARD PLATE) “inactive; negative”; (Test System: AMES SALMONELLA TYPHIMURIUM, Strain/Indicator: TA1537, Metabolic Activation: HAMSTER, LIVER, S-9, AROCLOR 1254 (10%), Method: STANDARD PLATE) “inactive; negative”; under setting [4], “inactive; negative”; (Test System: AMES SALMONELLA TYPHIMURIUM, Strain/Indicator: TA1537, Metabolic Activation: RAT, LIVER, S-9, AROCLOR 1254 (10%), Method: STANDARD PLATE) “inactive; negative”. In addition, the mutagenic call reads like this: (Test System: AMES SALMONELLA TYPHIMURIUM, Strain/Indicator: TA1538, Metabolic Activation: HAMSTER, LIVER, S-9, AROCLOR 1254 (10%), Method: STANDARD PLATE) “inactive; negative”; (Test System: AMES SALMONELLA TYPHIMURIUM, Strain/Indicator: TA1538, Metabolic Activation: NONE, Method: STANDARD PLATE) “inactive; negative”; (Test System: AMES SALMONELLA TYPHIMURIUM, Strain/Indicator: TA1538, Metabolic Activation: RAT, LIVER, S-9, AROCLOR 1254 (10%), Method: STANDARD PLATE) “inactive; negative”; (Test System: MOUSE LYMPHOMA, Strain/Indicator: L5178Y (TK+/TK-), Metabolic Activation: NONE, Method: SUSPENSION/PLATE) “inactive; negative. reevaluation of results: negative”; (Test System: MOUSE LYMPHOMA, Strain/Indicator: L5178Y (TK+/TK-), Metabolic Activation: RAT, LIVER, S-9, AROCLOR 1254, Method: SUSPENSION/PLATE) “inactive; negative. reevaluation of results: equivocal”.
For `Cn1c(CC(=O)OCCCl)c(C(=O)O)c2ccccc21`, the mutagenic call is “inactive; negative” (Test System: AMES SALMONELLA TYPHIMURIUM, Strain/Indicator: TA97, Metabolic Activation: NONE, Method: STANDARD PLATE); “inactive; negative” (Test System: AMES SALMONELLA TYPHIMURIUM, Strain/Indicator: TA97, Metabolic Activation: RAT, LIVER, S-9, AROCLOR 1254 (4%, 10%), Method: STANDARD PLATE); “active; positive” under setting [1]; “inactive; negative” (Test System: AMES SALMONELLA TYPHIMURIUM, Strain/Indicator: TA98, Metabolic Activation: RAT, LIVER, S-9, AROCLOR 1254 (4%, 10%), Method: STANDARD PLATE); “inactive; negative” under setting [2]; “inactive; negative” (Test System: AMES SALMONELLA TYPHIMURIUM, Strain/Indicator: TA100, Metabolic Activation: RAT, LIVER, S-9, AROCLOR 1254 (4%, 10%), Method: STANDARD PLATE). Moreover, the mutagenic call (Test System: AMES SALMONELLA TYPHIMURIUM, Strain/Indicator: TA102, Metabolic Activation: NONE, Method: STANDARD PLATE) is “inactive; negative” and the mutagenic call (Test System: AMES SALMONELLA TYPHIMURIUM, Strain/Indicator: TA102, Metabolic Activation: RAT, LIVER, S-9, AROCLOR 1254 (4%, 10%), Method: STANDARD PLATE) is “inactive; negative”.
For the molecule `COC(=O)CCC(=O)OC`, the mutagenic call (Test System: AMES SALMONELLA TYPHIMURIUM, Strain/Indicator: TA97, Metabolic Activation: HAMSTER, LIVER, S-9, AROCLOR 1254 (10 OR 30%), Method: PREINCUBATION) is “inactive; negative”; the mutagenic call (Test System: AMES SALMONELLA TYPHIMURIUM, Strain/Indicator: TA97, Metabolic Activation: NONE, Method: PREINCUBATION) was “inactive; negative”; the mutagenic call (Test System: AMES SALMONELLA TYPHIMURIUM, Strain/Indicator: TA97, Metabolic Activation: RAT, LIVER, S-9, AROCLOR 1254 (10 OR 30%), Method: PREINCUBATION) is “inactive; negative”; the mutagenic call (Test System: AMES SALMONELLA TYPHIMURIUM, Strain/Indicator: TA98, Metabolic Activation: HAMSTER, LIVER, S-9, AROCLOR 1254 (10 OR 30%), Method: PREINCUBATION) was “inactive; negative”; the mutagenic call (Test System: AMES SALMONELLA TYPHIMURIUM, Strain/Indicator: TA98, Metabolic Activation: NONE, Method: PREINCUBATION) is “inactive; negative”; the mutagenic call under setting [1] is “inactive; negative”. Also, the mutagenic call is “inactive; negative” (Test System: AMES SALMONELLA TYPHIMURIUM, Strain/Indicator: TA98, Metabolic Activation: RAT, LIVER, S-9, AROCLOR 1254 (10 OR 30%), Method: PREINCUBATION); “inactive; negative” under setting [5]; “inactive; negative” (Test System: AMES SALMONELLA TYPHIMURIUM, Strain/Indicator: TA100, Metabolic Activation: HAMSTER, LIVER, S-9, AROCLOR 1254 (10 OR 30%), Method: PREINCUBATION); “inactive; negative” (Test System: AMES SALMONELLA TYPHIMURIUM, Strain/Indicator: TA100, Metabolic Activation: NONE, Method: PREINCUBATION); “inactive; negative” under setting [2]; “inactive; negative” (Test System: AMES SALMONELLA TYPHIMURIUM, Strain/Indicator: TA100, Metabolic Activation: RAT, LIVER, S-9, AROCLOR 1254 (10 OR 30%), Method: PREINCUBATION). The mutagenic call reads like this: under setting [6], “inactive; negative”; (Test System: AMES SALMONELLA TYPHIMURIUM, Strain/Indicator: TA1535, Metabolic Activation: HAMSTER, LIVER, S-9, AROCLOR 1254 (10 OR 30%), Method: PREINCUBATION) “inactive; negative”; (Test System: AMES SALMONELLA TYPHIMURIUM, Strain/Indicator: TA1535, Metabolic Activation: NONE, Method: PREINCUBATION) “inactive; negative”; under setting [3], “inactive; negative”; (Test System: AMES SALMONELLA TYPHIMURIUM, Strain/Indicator: TA1535, Metabolic Activation: RAT, LIVER, S-9, AROCLOR 1254 (10 OR 30%), Method: PREINCUBATION) “inactive; negative”; (Test System: AMES SALMONELLA TYPHIMURIUM, Strain/Indicator: TA1535, Metabolic Activation: RAT, LIVER, S-9, AROCLOR 1254, Method: STANDARD PLATE) “inactive; negative”. Besides, the mutagenic call under setting [4] is “inactive; negative” and the mutagenic call (Test System: AMES SALMONELLA TYPHIMURIUM, Strain/Indicator: TA1537, Metabolic Activation: RAT, LIVER, S-9, AROCLOR 1254, Method: STANDARD PLATE) was “inactive; negative”.
For the molecule `Cc1ccc2c(c1)C(C)c1ccccc1-2` (configuration not stated), the mutagenic call runs as follows: under setting [5], “inactive; negative”; under setting [6], “active; positive”.
